{
  "source": "patent US20120114706A1",
  "about": "“Endorphin Therapy Compositions and Methods of Use Thereof” (priority 2008, published 2012)",
  "format_in_all_cases": "in vivo, rat",
  "key": {"MADB106 cells [1]": {"tested_on": "MADB106 cells", "experiment": "Pharmacologic modification of autonomic influence on immune system and lung metastasis", "protocol": "48 β-EP implanted (SC) male Fischer rats and 48 control (C) male Fischer rats were divided into 8 groups, treated with saline, Naloxone (10 mg/kg body weight), Metaproterenol (MP, 0.8 mg/kg body weight), or Methyllycaconitine (MLA, 2.5 mg/kg body weight), respectively. Animals were treated with drugs for 8 days. In the second day of drug injection, animals were inoculated with MADB106 cells (100,000/0.2 ml/rat). 24 hours after tumor cell inoculation, blood was collected by orbital puncture. Plasma was collected, and PBMCs were separated for migration assay and NK cytolytic assay. 7 days after tumor inoculation, blood was taken again by orbital puncture. Plasma was collected, and PBMCs were separated for migration assay and T cell cytolytic assay. After 6 weeks, animals were sacrificed, and brains, spleens and blood were frozen. Lungs were fixed in formalin and processed to H&E staining. […] However, 7 days after tumor inoculation, there isn't a clear pattern of T cell cytolytic activity and macrophage migration activity between groups (FIGS. 30B and 30D).\nIt was hypothesized that the beneficial effect of BEP neuron transplants on immune function is regulated through autonomic nervous system, and that central BEP modulate peripheral immune function by inhibiting the sympathetic activity and activating the parasympathetic activity. Metaproterenol (MET) is an agonist for β-receptors, which are a class of G protein-coupled receptors that are targets of the catecholamines, especially norepinephrine and epinephrine (Dokur et al. (2004) J Neuroimmunol 5:148-57; Page et al. (2008) J Neuroimmunol 193:113-9). Methyllycaconitine (MLA) is a selective antagonist of α7 nicotine acetylcholine receptor (α7 nAChR; Wu et al. (2011) Clin Cancer Res 17:3533-41). By injecting MET and MLA i.p., the stimulation of sympathetic nerves and inhibition of parasympathetic nerves was mimicked. Naloxone, an opiate receptor antagonist, was used to test whether BEP neuronal effects is acted via opiodergic receptor (Boyadjieva et al. (2006) Alcohol Clin Exp Res 30:1761-7). Forty-eight BEP neuron-transplanted Fischer rats and 48 control rats were divided into 8 groups and treated with saline, naloxone (10 mg/kg body weight), MET (0.8 mg/kg body weight), or MLA (2.5 mg/kg body weight) for 8 days (the doses used for these drugs are recognized as effective biological doses). A day after the first injection of these agents, animals were inoculated with MADB106 cells (100,000/0.2 mL/rat). Twenty-four hours after tumor cell inoculation, blood was collected by orbital puncture. Plasma was collected, and peripheral blood mononuclear cells (PBMC) were separated for migration assay and NK cytolytic assay. These animals continued receiving the blocker treatments for 7 days. After 4 weeks they were sacrificed, their lungs were fixed in formalin and processed to H&E staining for determination of cancer pathology. Brain tissues were processed for verification of the site and viability of BEP cell transplantation."}, "[2]": {"experiment": "Plasma corticosterone after nanosphere implantation", "details": "naloxone 1 mg/kg i.p., 12 hours", "protocol": "2 weeks later, half of the animals were i.p. injected with naloxone (1 mg/kg body weight), which is aμ-opioid receptor antagonist, specifically blocking the effect of β-EP. 12 hours later, animals were anesthetized with Nembutal, and blood was drawn from jugular vein. Plasma corticosterone level was measured with ELISA.\n2 months later, animals were anesthetized, and 1 ml of blood was drawn from jugular vein."}, "MADB106 cells [3]": {"tested_on": "MADB106 cells", "experiment": "MADB106 lung metastasis / lung tumor retention", "details": "naloxone 1 mg/kg every 12 hours, 3 times", "protocol": "A method for lung metastasis was adapted using MADB106 breast cancer cells, a NK-sensitive cell line widely used for lung metastasis study. Animals were anesthetized, and 100,000/0.2 ml/rat of MADB106 cells suspended in media were inoculated into jugular vein. After 4˜6 weeks, 70˜80% of inoculated animals developed tumor at the position of lung and/or neck, where the tumor cells were inoculated into the jugular vein.\n30 female Fischer rats were implanted with control, cAMP (10 μM) or cAMP (5 μM)+PACAP (5 μM) nanospheres into 3rd ventricle. 2 weeks later, half of the animals were randomly assigned to treatment with Naloxone (1 mg/kg body every 12 hours) for 3 times. After the second injection of Naloxone, animals were anesthetized and inoculated with 100,000/0.2 ml/rat MADB106 cells. 2 months later, animals were sacrificed, and lungs were fixed and sectioned for histology diagnosis.\nMADB106 cells, a Fischer 344 rat mammary adenocarcinoma cell line maintained in DMEM containing 10% fetal calf serum, was used. Female Fischer-344 rats were transplanted with BEP cell transplants or control cell transplants at 50 days of age. After about 2 weeks, these PVN cell-transplanted rats were inoculated with MADB106 tumor cells (100,000 cells/0.2 mL/rat) into jugular vein under sodium Nembutal solution (50 mg/kg) anesthesia. […]"}, "[4]": {"details": "24 hours after MADB106 inoculation, naloxone 10, MP/MET 0.8, MLA 2.5 mg/kg or saline"}},
  "note": "Entries after “also recorded” stand apart in the source; their conditions may differ.",
  "data": [
    {"molecule": "C=CCN1CC[C@]23c4c5ccc(O)c4O[C@H]2C(=O)CC[C@@]3(O)[C@H]1C5", "note": "[naloxone]", "values": [
      {"measurement": "PBMC NK cell activity", "setting": "MADB106 cells [1]; [4]", "value": "moderate or strong inhibitory effect"},
      {"measurement": "macrophage migration activity", "setting": "MADB106 cells [1]; [4]", "value": "moderate or strong inhibitory effect"},
      {"measurement": "effect on β-EP elimination of tumor cell lung retention", "setting": "MADB106 cells [1]; β-EP transplanted Fischer rats, naloxone 10, MP/MET 0.8, MLA 2.5 mg/kg for 8 days", "value": "stopped the effect of β-EP; also recorded: prevented, at various degrees"},
      {"measurement": "effect on nanosphere-lowered plasma corticosterone", "setting": "[2]", "value": "blocked the effect of nanospheres"},
      {"measurement": "effect on nanosphere-reduced lung tumor retention", "setting": "MADB106 cells [3]", "value": "reversed the effect of nanosphere"}
    ]}
  ]
}
